How the values were obtained:
[1] = biological target: T1, receptors of AR type (androgen receptor) (Homo sapiens, UniProt P10275); assay: AR transactivation test in the PALM (PC3 Androgen receptor Luciferse MMTV) cell line, cross curves against methyltrienolone; assay type: cell-based; details: cross curves vs reference agonist methyltrienolone, read-out: Kdapp (apparent dissociation constant)
T1 construct: expressed in transfected cells; host or cells: PALM cell line (PC3 stably transfected with PMMTV-neo-Luc and pSG5puro-AR)
T1 sequence (P10275 1-920): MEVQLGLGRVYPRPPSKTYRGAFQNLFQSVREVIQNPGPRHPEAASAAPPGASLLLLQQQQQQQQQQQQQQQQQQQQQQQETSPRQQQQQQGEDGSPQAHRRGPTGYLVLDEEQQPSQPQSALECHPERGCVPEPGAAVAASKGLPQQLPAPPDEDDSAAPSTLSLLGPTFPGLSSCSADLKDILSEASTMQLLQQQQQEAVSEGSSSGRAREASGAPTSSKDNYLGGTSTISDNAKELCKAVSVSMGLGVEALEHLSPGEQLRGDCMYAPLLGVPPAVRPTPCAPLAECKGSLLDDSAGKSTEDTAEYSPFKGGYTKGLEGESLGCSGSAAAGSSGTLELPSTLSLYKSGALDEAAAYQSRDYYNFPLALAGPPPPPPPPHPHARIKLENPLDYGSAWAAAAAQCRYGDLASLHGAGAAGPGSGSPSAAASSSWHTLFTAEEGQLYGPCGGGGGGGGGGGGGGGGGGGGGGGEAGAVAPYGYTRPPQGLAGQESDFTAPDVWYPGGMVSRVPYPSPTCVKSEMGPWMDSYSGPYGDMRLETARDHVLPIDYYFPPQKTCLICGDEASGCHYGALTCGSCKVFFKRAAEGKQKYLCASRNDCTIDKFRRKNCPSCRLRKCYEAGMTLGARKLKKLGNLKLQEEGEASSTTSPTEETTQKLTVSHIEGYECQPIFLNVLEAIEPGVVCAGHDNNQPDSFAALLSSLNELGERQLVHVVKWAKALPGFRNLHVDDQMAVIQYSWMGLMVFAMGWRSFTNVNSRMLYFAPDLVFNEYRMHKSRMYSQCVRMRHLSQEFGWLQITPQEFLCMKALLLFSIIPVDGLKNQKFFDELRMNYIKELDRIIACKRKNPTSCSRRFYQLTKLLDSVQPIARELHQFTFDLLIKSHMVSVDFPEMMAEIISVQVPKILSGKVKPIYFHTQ
Method: The compounds according to the invention show inhibitory properties on receptors of AR type. This AR receptor-inhibiting activity is measured in a transactivation test through the KdR (resting), KdA (active) and Kdapp (apparent) dissociation constants according to the method set out in J. Molecular Biology (1965), 12(1), 88-118, Monod J. et al.
The expression “AR-type receptor inhibitor” means, according to the invention, any compound which has a Kdapp dissociation constant of less than or equal to 1 μM, and a KdR/KdA ratio ≦10, in a transactivation test.
The transactivation test is carried out in the PALM (PC3 Androgen receptor Luciferse MMTV) cell line which is a stable transfectant containing the PMMTV-neo-Luc (reporter gene) and pSG5puro-AR plasmids.
In this study, the affinity of each product for the 2 receptor states (KdR and KdA) is determined, as is an apparent Kd (KdApp). This constant is a result of the 2 Kd, but also depends on the initial equilibrium of the receptor between the active state and the resting state (L0) and on its expression level. It is determined by means of the following formula: 1/KdApp=(L0/(1+L0))×(1/KdR)+(1/(1+L0))×(1/KdA)
To determine these constants, “cross curves” of the test product against a reference agonist, methyltrienolone, are produced in 96-well plates. The test product is used at 10 concentrations and the reference agonist at 7 concentrations.

| Structure (SMILES) | Kd [1] [nM] | melting point [°C] |
| --- | --- | --- |
| COc1cccc(NCc2ccccc2O)n1 [Example 1, 2-[(6-Methoxypyridin-2-ylamino)methyl]phenol] | 40 | 103 |
| Oc1ccccc1CNc1cccc(Br)n1 [Example 2, 2-[(6-bromo-pyridin-2-ylamino)-methyl]-phenol] | 2 |  |
| N#Cc1cccc(NCc2ccccc2O)n1 [Example 4, 6-(2-hydroxy-benzyl-amino)-pyridine-2-carbonitrile] | 200 |  |
| Oc1ccccc1CNc1cncc(Br)n1 [Example 13, 2-[(6-Bromopyrazin-2-ylamino)methyl]phenol] |  | 168 |
| Cc1cc(Cl)nc(NCc2ccccc2O)c1 [Example 18, 2-[(6-chloro-4-methyl-pyridin-2-ylamino)-methyl]-phenol] | 1000 |  |

Second part, the compound after the results:

| Kd [1] [nM] | melting point [°C] | Structure (SMILES) |
| --- | --- | --- |
| 8 | 158 | COc1cncc(NCc2ccccc2O)n1 [Example 19, 2-[(6-Methoxypyrazin-2-ylamino)methyl]phenol] |
|  | 161 | COc1nccc(NCc2ccccc2O)n1 [Example 20, 2-[(2-Methoxypyrimidin-4-ylamino)methyl]phenol] |
|  | 61 | CSc1cccc(NCc2ccccc2O)n1 [Example 22, 2-[(6-Methylsulphanylpyridin-2-ylamino)methyl]phenol] |
|  | 133 | C[S+]([O-])c1cccc(NCc2ccccc2O)n1 (centres unmarked) [Example 23, 2-[(6-Methanesulphinylpyridin-2-ylamino)methyl]phenol] |

Source: US9050266B2, “Phenol derivatives and pharmaceutical or cosmetic use thereof” (GALDERMA RESEARCH & DEVELOPMENT, priority 2009, dated 2015)
